# How the values were obtained:
# HT29 cells = assay: MTS cytotoxicity assay, 72 hours, single agents and combinations with Aplidine; format: cell-based; conditions: Homo sapiens, HT-29, HT29, 72 hours drug exposure, read-out: IC50 (Molar)
# Experimental: (§1) Day before plating cells all cultures were fed with fresh, complete growth media. On the harvest (plating) day cells were counted by Trypan Blue exclusion staining method (basic cell culture). Cells were harvested and seeded in 96 well microtiter plates at 10,000 cells per well in 190 μL of media and incubated for 24 hours to allow the cells to attach before drug addition. Cells were treated with the drugs and the cytotoxic effect was measured by the MTS Assay (Tetrazolium), which is a colorimetric method for determining the number of viable cells. After the 72 hours of incubation with drug, 25 μL of MTS+PMS solution was added to each microtiter well and incubated for 4 hours at 37° C. Plates were then removed from incubator and placed on plate shaker for 5 minutes (covered with aluminium foil for protection from light). Optical densities were read at 490 nm on spectrophotometer plate reader.
# (§2) The microtiter plates were incubated for 72 hrs, at 5% CO2 and 37° C. The cytotoxic effect was measured by MTS Assay. Optical densities read at 490 nm. Normalized data was plotted and interpreted as described. Data was analysed as: • 1. Prism (Graphpad) software program was used to normalized the data to control values (100%=cell growth in the absence of agent (drug); 0%=blank control). • 2. Data normalized were plotted as scatter plots.
# (§3) Conversely, antagonism was concluded when inhibition was lower than both maxima. […] Statistical significance was assessed by performing a student's t-test on the inhibition at each dose ratio versus the inhibition at the maximum for each drug.
# (§4) As a visual aid, response values were plotted on a scatter plot with dose ratios given on the x-axis and % response values on the y-axis. […] In cases where response values at the two endpoints were approximately equivalent, points lying above or below this predicted line of additivity could be interpreted as representing antagonistic or synergistic drug interaction, respectively.
# MX1 cells = assay: as above; format: cell-based; conditions: Homo sapiens, MX1, 72 hours drug exposure, read-out: IC50 (Molar)
# Experimental: as §1, §2, §3, §4
# PC3 cells = assay: as above; format: cell-based; conditions: Homo sapiens, PC-3, PC3, 72 hours drug exposure, read-out: IC50 (Molar)
# Experimental: as §1, §2, §3, §4
# A549 cells = assay: as above; format: cell-based; conditions: Homo sapiens, A549, 72 hours drug exposure, read-out: IC50 (Molar)
# Experimental: as §1, §2, §3, §4
# MOLT3 cells = assay: as above; format: cell-based; conditions: Homo sapiens, MOLT-3, MOLT3, 72 hours drug exposure, read-out: IC50 (Molar)
# Experimental: as §1, §2, §3, §4
# HL60 cells = assay: as above; format: cell-based; conditions: Homo sapiens, HL-60, HL60, 72 hours drug exposure, read-out: IC50 (Molar)
# Experimental: as §1, §2, §3, §4
# [1] = tested on: MRI-H187 melanoma tumor xenografts; assay: Net tumor volume in tumor xenografts; format: in vivo, female athymic mice; conditions: Aplidine 50 μg/kg, DTIC 40 mg/kg, Carboplatin 25 mg/kg, i.p.
# From the text: (§5) Athymic nude female mice were received from Harlan Sprague Dawley, Madison, Wis. at 4-5 weeks of age. Mice were acclimated to the laboratory for at least one week prior to implantation of tumor. Animals were housed in static cages with food and water allowed ad libitum. Experimental animals were implanted with either tumor fragments derived from transplantation established human tumors or with cells obtain directly from in vitro culture. Tumors were implanted subcutaneously on the right flank on Day 0.
# (§6) Tumor size measurements were recorded twice weekly beginning on day 4 or 5 using vernier calipers. The formula to calculate volume for a prolate ellipsoid was used to estimate tumor volume from 2-dimensional tumor measurements: tumor volume (mm^3)=(length×width^2)÷2. Assuming unit density, volume was converted to weight (i.e., 1 mm^3=1 mg). […] Treatments were initiated and administered on an individual body weight basis. A dose range finding study was performed on each tumor model to determine the appropriate dose level of each compound used in the combination studies.
# [2] = tested on: LOX-IMVI melanoma tumor xenografts; assay: Net tumor volume in tumor xenografts; format: in vivo, female athymic mice; conditions: DTIC 30 mg/kg, Carboplatin 25 mg/kg, i.p.
# From the text: as §5, §6
# SKBR3 cells = assay: MTS cytotoxicity assay, 72 hours, single agents and combinations with Aplidine; format: cell-based; conditions: Homo sapiens, SK-BR-3, SKBR3, 72 hours drug exposure, read-out: IC50 (Molar)
# Experimental: as §1, §2, §3, §4
# [3] = tested on: CaKi-1 renal tumor xenografts; assay: Net tumor volume in tumor xenografts; format: in vivo, female athymic mice; conditions: Aplidine 50 μg/kg i.p., Avastin 5.0 mg/kg i.p., IL-2 2 μg/mouse i.p., INF-α 200,000 U/mouse s.c.
# From the text: as §5, §6
# [4] = tested on: MRI-H121 renal tumor xenografts; assay: Net tumor volume in tumor xenografts; format: in vivo, female athymic mice; conditions: Aplidine 25 μg/kg i.p., Avastin […] i.p., IL-2 1 μg/mouse i.p., INF-α 200,000 U/mouse s.c.
# From the text: as §5, §6
compound,measurement,setting,value
"O=c1[nH]cc(F)c(=O)[nH]1 [5-FU, 5-fluorouracil]",IC50,HT29 cells,880 µM
same,IC50,MX1 cells,> 100 µM
same,IC50,PC3 cells,220 µM
same,IC50,A549 cells,1400 µM
same,IC50,MOLT3 cells,11 µM
same,IC50,HL60 cells,1200 µM
"CN(C)/N=N/c1[nH]cnc1C(N)=O [DTIC, dacarbazine]",Net Tumor Volume ± S.E.M.,"[1]; MRI-H187, DAY 20",148 ± 14 mg
same,Net Tumor Volume ± S.E.M.,"[1]; MRI-H187, DAY 24",264 ± 60 mg
same,Net Tumor Volume ± S.E.M.,"[1]; MRI-H187, DAY 27",377 ± 98 mg
same,Net Tumor Volume ± S.E.M.,"[1]; MRI-H187, DAY 31",558 ± 152 mg
same,Net Tumor Volume ± S.E.M.,"[1]; MRI-H187, DAY 34",681 ± 187 mg
same,Net Tumor Volume ± S.E.M.,"[1]; MRI-H187, DAY 38",927 ± 274 mg
same,Net Tumor Volume ± S.E.M.,"[1]; MRI-H187, DAY 46",1508 ± 427 mg
same,Net Tumor Volume ± S.E.M.,"[1]; MRI-H187, DAY 49",1804 ± 507 mg
same,Net Tumor Volume ± S.E.M.,"[1]; MRI-H187, DAY 52",2036 ± 525 mg
same,Net Tumor Volume ± S.E.M.,"[1]; MRI-H187, DAY 55",2123 ± 558 mg
same,Net Tumor Volume ± S.E.M.,"[1]; MRI-H187, DAY 59",2166 ± 563 mg
same,Net Tumor Volume ± S.E.M.,"[1]; MRI-H187, DAY 62",2333 ± 433 mg
same,Net Tumor Volume ± S.E.M.,"[1]; MRI-H187, DAY 66",2508 ± 536 mg
same,Net Tumor Volume ± S.E.M.,"[2]; DAY 8, Aplidine 50 μg/kg",208 ± 25 mg
same,Net Tumor Volume ± S.E.M.,"[2]; DAY 12, Aplidine 50 μg/kg",699 ± 57 mg
same,Net Tumor Volume ± S.E.M.,"[2]; DAY 14, Aplidine 50 μg/kg",950 ± 57 mg
same,Net Tumor Volume ± S.E.M.,"[2]; DAY 19, Aplidine 50 μg/kg",2695 ± 560 mg
CC(=O)O[C@H]1C(=O)[C@@]2(C)[C@H]([C@H](OC(=O)c3ccccc3)[C@]3(O)C[C@H](OC(=O)[C@H](O)[C@@H](NC(=O)c4ccccc4)c4ccccc4)C(C)=C1C3(C)C)[C@]1(OC(C)=O)CO[C@@H]1C[C@@H]2O [paclitaxel],IC50,SKBR3 cells,> 100 µM
same,IC50,HT29 cells,0.005 µM
same,IC50,MX1 cells,9.4 µM
same,IC50,A549 cells,0.013 µM
same,IC50,MOLT3 cells,77 µM
same,IC50,HL60 cells,0.016 µM
"Avastin ®: Bevacizumab (Avastin®), standard of care agent",Net Tumor Volume ± S.E.M.,"[3]; CaKi-1, DAY 13",105 ± 3 mg
same,Net Tumor Volume ± S.E.M.,"[3]; CaKi-1, DAY 15",162 ± 14 mg
same,Net Tumor Volume ± S.E.M.,"[3]; CaKi-1, DAY 19",286 ± 49 mg
same,Net Tumor Volume ± S.E.M.,"[3]; CaKi-1, DAY 22",398 ± 53 mg
same,Net Tumor Volume ± S.E.M.,"[3]; CaKi-1, DAY 26",632 ± 79 mg
same,Net Tumor Volume ± S.E.M.,"[3]; CaKi-1, DAY 29",811 ± 90 mg
same,Net Tumor Volume ± S.E.M.,"[3]; CaKi-1, DAY 33",985 ± 111 mg
same,Net Tumor Volume ± S.E.M.,"[3]; CaKi-1, DAY 36",1251 ± 109 mg
same,Net Tumor Volume ± S.E.M.,"[3]; CaKi-1, DAY 41",1654 ± 189 mg
same,Net Tumor Volume ± S.E.M.,"[3]; CaKi-1, DAY 47",2170 ± 253 mg
same,Net Tumor Volume ± S.E.M.,"[3]; CaKi-1, DAY 50",2842 ± 379 mg
same,Net Tumor Volume ± S.E.M.,"[4]; MRI-H121, DAY 11",106 ± 7 mg
same,Net Tumor Volume ± S.E.M.,"[4]; MRI-H121, DAY 14",171 ± 16 mg
same,Net Tumor Volume ± S.E.M.,"[4]; MRI-H121, DAY 18",306 ± 27 mg
same,Net Tumor Volume ± S.E.M.,"[4]; MRI-H121, DAY 19",299 ± 39 mg
same,Net Tumor Volume ± S.E.M.,"[4]; MRI-H121, DAY 21",365 ± 39 mg
same,Net Tumor Volume ± S.E.M.,"[4]; MRI-H121, DAY 26",503 ± 57 mg
same,Net Tumor Volume ± S.E.M.,"[4]; MRI-H121, DAY 29",678 ± 77 mg
same,Net Tumor Volume ± S.E.M.,"[4]; MRI-H121, DAY 32",899 ± 93 mg
same,Net Tumor Volume ± S.E.M.,"[4]; MRI-H121, DAY 35",898 ± 69 mg
same,Net Tumor Volume ± S.E.M.,"[4]; MRI-H121, DAY 39",1240 ± 124 mg
same,Net Tumor Volume ± S.E.M.,"[4]; MRI-H121, DAY 42",1383 ± 148 mg

# Source: patent US8258098B2, “Antitumoral treatments” (Pharma Mar, S.A., priority 2006, dated 2012)
